Results taken from the supplement of paper PMC10883282.
± gives the standard deviation of the averaged measurements.

What was measured:
Test in all cases: relative viability vs DMSO control (72 h) (fraction); higher = more viable cells
[1] = test system: RD-ES
Summary of the method: (§1)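 ATPLite readings, expressed as percent growth and averaged over up to triplicate wells, provided relative viability. Before reading, sarcoma cell lines seeded in 384-well plates to reach 80–90% confluence received 2.5 µl of serially diluted compound after 24 h, from source plates of 10 mM to 0.0002 mM. Plates were held 72 h at 37 °C, 5% CO2, with 0.1% DMSO as vehicle and a 5 µM positive control. The data were rescaled to 1 for full and 0 for none.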

[2] = test system: SYO-1
Summary of the method: as §1

[3] = test system: SK-ES-1
Summary of the method: as §1

[4] = test system: G401
Summary of the method: as §1

[5] = test system: VA-ES-BJ
Summary of the method: as §1

[6] = test system: KHOS-240S
Summary of the method: as §1

[7] = test system: HT1080
Summary of the method: as §1

[8] = test system: RD
Summary of the method: as §1

[9] = test system: SW982
Summary of the method: as §1

[10] = test system: SW1353
Summary of the method: as §1

[11] = test system: SK-LMS-1
Summary of the method: as §1

[12] = test system: MES-SA
Summary of the method: as §1

O=C(c1ccc(F)c(F)c1Nc1ccc(I)cc1F)N1CC(O)([C@@H]2CCCCN2)C1 [Cobimetinib]
Conditions	relative viability
[1], 0.00017 µM	0.999 ± 0.026
[1], 0.00051 µM	1.02 ± 0.015
[1], 0.00152 µM	0.985 ± 0.022
[1], 0.00457 µM	0.986 ± 0.02
[1], 0.01372 µM	0.945 ± 0.015
[1], 0.04115 µM	0.979 ± 0.019
[1], 0.1235 µM	0.955 ± 0.018
[1], 0.3704 µM	0.982 ± 0.011
[1], 1.111 µM	0.974 ± 0.016
[1], 3.333 µM	0.91 ± 0.056
[1], 10 µM	0.0147 ± 0.0016
[2], 0.00017 µM	0.985 ± 0.036
[2], 0.00051 µM	0.998 ± 0.049
[2], 0.00152 µM	0.964 ± 0.043
[2], 0.00457 µM	0.9431 ± 0.007
[2], 0.01372 µM	0.928 ± 0.019
[2], 0.04115 µM	0.907 ± 0.055
[2], 0.1235 µM	0.929 ± 0.053
[2], 0.3704 µM	0.84 ± 0.05
[2], 1.111 µM	0.719 ± 0.023
[2], 3.333 µM	0.566 ± 0.036
[2], 10 µM	-0.0086 ± 0.0037
[3], 0.00017 µM	1.04 ± 0.073
[3], 0.00051 µM	1 ± 0.035
[3], 0.00152 µM	1.04 ± 0.021
[3], 0.00457 µM	1.03 ± 0.032
[3], 0.01372 µM	1.04 ± 0.037
[3], 0.04115 µM	1.01 ± 0.029
[3], 0.1235 µM	1.02 ± 0.06
[3], 0.3704 µM	0.982 ± 0.035
[3], 1.111 µM	0.923 ± 0.052
[3], 3.333 µM	0.842 ± 0.03
[3], 10 µM	0.0122 ± 0.00045
[4], 0.00017 µM	0.99 ± 0.051
[4], 0.00051 µM	1.03 ± 0.02
[4], 0.00152 µM	0.993 ± 0.013
[4], 0.00457 µM	0.99 ± 0.024
[4], 0.01372 µM	0.951 ± 0.034
[4], 0.04115 µM	0.896 ± 0.021
[4], 0.1235 µM	0.786 ± 0.022
[4], 0.3704 µM	0.643 ± 0.026
[4], 1.111 µM	0.396 ± 0.019
[4], 3.333 µM	0.0971 ± 0.007
[4], 10 µM	0.0011 ± 0.001
[5], 0.00017 µM	1.05 ± 0.032
[5], 0.00051 µM	1.07 ± 0.048
[5], 0.00152 µM	1.05 ± 0.027
[5], 0.00457 µM	1.02 ± 0.033
[5], 0.01372 µM	0.982 ± 0.043
[5], 0.04115 µM	0.906 ± 0.036
[5], 0.1235 µM	0.747 ± 0.15
[5], 0.3704 µM	0.638 ± 0.15
[5], 1.111 µM	0.567 ± 0.089
[5], 3.333 µM	0.451 ± 0.12
[5], 10 µM	0.209 ± 0.025
[6], 0.00017 µM	1.07 ± 0.047
[6], 0.00051 µM	1.07 ± 0.039
[6], 0.00152 µM	1.09 ± 0.044
[6], 0.00457 µM	1.05 ± 0.034
[6], 0.01372 µM	1.03 ± 0.042
[6], 0.04115 µM	0.936 ± 0.027
[6], 0.1235 µM	0.79 ± 0.037
[6], 0.3704 µM	0.709 ± 0.047
[6], 1.111 µM	0.669 ± 0.09
[6], 3.333 µM	0.549 ± 0.11
[6], 10 µM	0.0497 ± 0.021
[7], 0.00017 µM	1.07 ± 0.015
[7], 0.00051 µM	1.087 ± 0.0045
[7], 0.00152 µM	1.067 ± 0.0094
[7], 0.00457 µM	1.049 ± 0.01
[7], 0.01372 µM	1.06 ± 0.021
[7], 0.04115 µM	0.876 ± 0.028
[7], 0.1235 µM	0.586 ± 0.032
[7], 0.3704 µM	0.4917 ± 0.0027
[7], 1.111 µM	0.39 ± 0.019
[7], 3.333 µM	0.247 ± 0.022
[7], 10 µM	0.0054 ± 0.00072
[8], 0.00017 µM	1.1 ± 0.017
[8], 0.00051 µM	1.1 ± 0.025
[8], 0.00152 µM	1.07 ± 0.038
[8], 0.00457 µM	1.02 ± 0.047
[8], 0.01372 µM	0.88 ± 0.035
[8], 0.04115 µM	0.766 ± 0.025
[8], 0.1235 µM	0.636 ± 0.0091
[8], 0.3704 µM	0.539 ± 0.019
[8], 1.111 µM	0.461 ± 0.075
[8], 3.333 µM	0.346 ± 0.083
[8], 10 µM	0.0053 ± 0.001
[9], 0.00017 µM	1.04 ± 0.022
[9], 0.00051 µM	1.02 ± 0.033
[9], 0.00152 µM	1 ± 0.012
[9], 0.00457 µM	1.01 ± 0.023
[9], 0.01372 µM	0.98 ± 0.022
[9], 0.04115 µM	0.942 ± 0.029
[9], 0.1235 µM	0.878 ± 0.023
[9], 0.3704 µM	0.804 ± 0.021
[9], 1.111 µM	0.765 ± 0.056
[9], 3.333 µM	0.578 ± 0.015
[9], 10 µM	0.0118 ± 0.00025
[10], 0.00017 µM	0.989 ± 0.018
[10], 0.00051 µM	0.983 ± 0.028
[10], 0.00152 µM	1 ± 0.018
[10], 0.00457 µM	0.979 ± 0.033
[10], 0.01372 µM	0.899 ± 0.05
[10], 0.04115 µM	0.838 ± 0.059
[10], 0.1235 µM	0.778 ± 0.027
[10], 0.3704 µM	0.704 ± 0.042
[10], 1.111 µM	0.669 ± 0.036
[10], 3.333 µM	0.617 ± 0.051
[10], 10 µM	0.0141 ± 0.0011
[11], 0.00017 µM	1.06 ± 0.049
[11], 0.00051 µM	1.09 ± 0.019
[11], 0.00152 µM	1.05 ± 0.059
[11], 0.00457 µM	1.02 ± 0.032
[11], 0.01372 µM	0.989 ± 0.041
[11], 0.04115 µM	0.767 ± 0.0095
[11], 0.1235 µM	0.584 ± 0.011
[11], 0.3704 µM	0.398 ± 0.02
[11], 1.111 µM	0.299 ± 0.012
[11], 3.333 µM	0.1728 ± 0.0017
[11], 10 µM	0.0129 ± 0.0027
[12], 0.00017 µM	0.934 ± 0.05
[12], 0.00051 µM	0.948 ± 0.05
[12], 0.00152 µM	0.925 ± 0.027
[12], 0.00457 µM	0.899 ± 0.027
[12], 0.01372 µM	0.896 ± 0.038
[12], 0.04115 µM	0.824 ± 0.038
[12], 0.1235 µM	0.786 ± 0.019
[12], 0.3704 µM	0.752 ± 0.027
[12], 1.111 µM	0.721 ± 0.017
[12], 3.333 µM	0.6391 ± 0.0033
[12], 10 µM	0.0114 ± 0.001
